# Experimental data: ChEMBL document CHEMBL1150515, “Synthesis and structure-activity relationships of novel THF 1-methylcarbapenems II” (1997)
# Tested on: Escherichia coli
# Assay: Antimicrobial activity against Escherichia coli (GC 1792)
# Assay type: functional
# Conditions: not given
row,SMILES,MIC [µg/mL]
1,C[C@@H](O)[C@H]1C(=O)N2C(C(=O)[O-])=C(SC3COC(C/N=C/N)C3)[C@H](C)[C@H]12.[Na+] (stereo partly specified),≤ 0.06
2,C[C@@H](O)[C@H]1C(=O)N2C(C(=O)[O-])=C(SC3COC(C/N=C/N(C)C)C3)[C@H](C)[C@H]12.[Na+] (stereo partly specified),0.12
3,C[C@@H](O)[C@H]1C(=O)N2C(C(=O)[O-])=C(SC3COC(C[N+](C)(C)C)C3)[C@H](C)[C@H]12 (stereo partly specified),0.25
4,CNCC(=O)NCC1CC(SC2=C(C(=O)[O-])N3C(=O)[C@H]([C@@H](C)O)[C@H]3[C@H]2C)CO1.[Na+] (stereo partly specified),≤ 0.06

# Tested on: Pseudomonas aeruginosa
# Assay: Antimicrobial activity against Pseudomonas aeruginosa (ATCC 27853)
# Assay type: functional
# Conditions: not given
row,SMILES,MIC [µg/mL]
1,C[C@@H](O)[C@H]1C(=O)N2C(C(=O)[O-])=C(SC3COC(C/N=C/N)C3)[C@H](C)[C@H]12.[Na+] (stereo partly specified),8
2,C[C@@H](O)[C@H]1C(=O)N2C(C(=O)[O-])=C(SC3COC(C/N=C/N(C)C)C3)[C@H](C)[C@H]12.[Na+] (stereo partly specified),16
3,C[C@@H](O)[C@H]1C(=O)N2C(C(=O)[O-])=C(SC3COC(C[N+](C)(C)C)C3)[C@H](C)[C@H]12 (stereo partly specified),32
4,CNCC(=O)NCC1CC(SC2=C(C(=O)[O-])N3C(=O)[C@H]([C@@H](C)O)[C@H]3[C@H]2C)CO1.[Na+] (stereo partly specified),32

# Tested on: not listed separately
# Assay: Antimicrobial activity against Enterococcus faecium (GC 1182)
# Assay type: functional
# Conditions: not given
row,SMILES,MIC [µg/mL]
1,C[C@@H](O)[C@H]1C(=O)N2C(C(=O)[O-])=C(SC3COC(C/N=C/N)C3)[C@H](C)[C@H]12.[Na+] (stereo partly specified),> 128
2,C[C@@H](O)[C@H]1C(=O)N2C(C(=O)[O-])=C(SC3COC(C/N=C/N(C)C)C3)[C@H](C)[C@H]12.[Na+] (stereo partly specified),> 128
3,C[C@@H](O)[C@H]1C(=O)N2C(C(=O)[O-])=C(SC3COC(C[N+](C)(C)C)C3)[C@H](C)[C@H]12 (stereo partly specified),> 128
4,CNCC(=O)NCC1CC(SC2=C(C(=O)[O-])N3C(=O)[C@H]([C@@H](C)O)[C@H]3[C@H]2C)CO1.[Na+] (stereo partly specified),> 128

# Tested on: Pseudomonas aeruginosa
# Assay: Antimicrobial activity against Pseudomonas aeruginosa (GC 1544 OprD)
# Assay type: functional
# Conditions: not given
row,SMILES,MIC [µg/mL]
1,C[C@@H](O)[C@H]1C(=O)N2C(C(=O)[O-])=C(SC3COC(C/N=C/N)C3)[C@H](C)[C@H]12.[Na+] (stereo partly specified),16
2,C[C@@H](O)[C@H]1C(=O)N2C(C(=O)[O-])=C(SC3COC(C/N=C/N(C)C)C3)[C@H](C)[C@H]12.[Na+] (stereo partly specified),32
3,C[C@@H](O)[C@H]1C(=O)N2C(C(=O)[O-])=C(SC3COC(C[N+](C)(C)C)C3)[C@H](C)[C@H]12 (stereo partly specified),64
4,CNCC(=O)NCC1CC(SC2=C(C(=O)[O-])N3C(=O)[C@H]([C@@H](C)O)[C@H]3[C@H]2C)CO1.[Na+] (stereo partly specified),32

# Tested on: not listed separately
# Assay: Antimicrobial activity against Citrobacter freundii (GC 2211)
# Assay type: functional
# Conditions: not given
row,SMILES,MIC [µg/mL]
1,C[C@@H](O)[C@H]1C(=O)N2C(C(=O)[O-])=C(SC3COC(C/N=C/N)C3)[C@H](C)[C@H]12.[Na+] (stereo partly specified),≤ 0.06
2,C[C@@H](O)[C@H]1C(=O)N2C(C(=O)[O-])=C(SC3COC(C/N=C/N(C)C)C3)[C@H](C)[C@H]12.[Na+] (stereo partly specified),0.5
3,C[C@@H](O)[C@H]1C(=O)N2C(C(=O)[O-])=C(SC3COC(C[N+](C)(C)C)C3)[C@H](C)[C@H]12 (stereo partly specified),1
4,CNCC(=O)NCC1CC(SC2=C(C(=O)[O-])N3C(=O)[C@H]([C@@H](C)O)[C@H]3[C@H]2C)CO1.[Na+] (stereo partly specified),0.25

# Tested on: Escherichia coli
# Assay: Antimicrobial activity against Escherichia coli (ATCC 25922)
# Assay type: functional
# Conditions: not given
row,SMILES,MIC [µg/mL]
1,C[C@@H](O)[C@H]1C(=O)N2C(C(=O)[O-])=C(SC3COC(C/N=C/N)C3)[C@H](C)[C@H]12.[Na+] (stereo partly specified),≤ 0.06
2,C[C@@H](O)[C@H]1C(=O)N2C(C(=O)[O-])=C(SC3COC(C/N=C/N(C)C)C3)[C@H](C)[C@H]12.[Na+] (stereo partly specified),0.12
3,C[C@@H](O)[C@H]1C(=O)N2C(C(=O)[O-])=C(SC3COC(C[N+](C)(C)C)C3)[C@H](C)[C@H]12 (stereo partly specified),0.25
4,CNCC(=O)NCC1CC(SC2=C(C(=O)[O-])N3C(=O)[C@H]([C@@H](C)O)[C@H]3[C@H]2C)CO1.[Na+] (stereo partly specified),≤ 0.06

# Tested on: Acinetobacter calcoaceticus
# Assay: Antimicrobial activity against Acinetobacter calcoaceticus (GC 756)
# Assay type: functional
# Conditions: not given
row,SMILES,MIC [µg/mL]
1,C[C@@H](O)[C@H]1C(=O)N2C(C(=O)[O-])=C(SC3COC(C/N=C/N)C3)[C@H](C)[C@H]12.[Na+] (stereo partly specified),2
2,C[C@@H](O)[C@H]1C(=O)N2C(C(=O)[O-])=C(SC3COC(C/N=C/N(C)C)C3)[C@H](C)[C@H]12.[Na+] (stereo partly specified),16
3,C[C@@H](O)[C@H]1C(=O)N2C(C(=O)[O-])=C(SC3COC(C[N+](C)(C)C)C3)[C@H](C)[C@H]12 (stereo partly specified),16
4,CNCC(=O)NCC1CC(SC2=C(C(=O)[O-])N3C(=O)[C@H]([C@@H](C)O)[C@H]3[C@H]2C)CO1.[Na+] (stereo partly specified),2

# Tested on: not listed separately
# Assay: Antimicrobial activity against Enterobacter cloacae (GC 2209)
# Assay type: functional
# Conditions: not given
row,SMILES,MIC [µg/mL]
1,C[C@@H](O)[C@H]1C(=O)N2C(C(=O)[O-])=C(SC3COC(C/N=C/N)C3)[C@H](C)[C@H]12.[Na+] (stereo partly specified),≤ 0.06
2,C[C@@H](O)[C@H]1C(=O)N2C(C(=O)[O-])=C(SC3COC(C/N=C/N(C)C)C3)[C@H](C)[C@H]12.[Na+] (stereo partly specified),0.12
3,C[C@@H](O)[C@H]1C(=O)N2C(C(=O)[O-])=C(SC3COC(C[N+](C)(C)C)C3)[C@H](C)[C@H]12 (stereo partly specified),0.25
4,CNCC(=O)NCC1CC(SC2=C(C(=O)[O-])N3C(=O)[C@H]([C@@H](C)O)[C@H]3[C@H]2C)CO1.[Na+] (stereo partly specified),≤ 0.06

# Tested on: Escherichia coli
# Assay: Antimicrobial activity against Escherichia coli (GC 2205)
# Assay type: functional
# Conditions: not given
row,SMILES,MIC [µg/mL]
1,C[C@@H](O)[C@H]1C(=O)N2C(C(=O)[O-])=C(SC3COC(C/N=C/N)C3)[C@H](C)[C@H]12.[Na+] (stereo partly specified),≤ 0.06
2,C[C@@H](O)[C@H]1C(=O)N2C(C(=O)[O-])=C(SC3COC(C/N=C/N(C)C)C3)[C@H](C)[C@H]12.[Na+] (stereo partly specified),0.12
3,C[C@@H](O)[C@H]1C(=O)N2C(C(=O)[O-])=C(SC3COC(C[N+](C)(C)C)C3)[C@H](C)[C@H]12 (stereo partly specified),0.25
4,CNCC(=O)NCC1CC(SC2=C(C(=O)[O-])N3C(=O)[C@H]([C@@H](C)O)[C@H]3[C@H]2C)CO1.[Na+] (stereo partly specified),≤ 0.06

# Tested on: not listed separately
# Assay: Antimicrobial activity against Xanthomonas maltophilia (GC 562)
# Assay type: functional
# Conditions: Stenotrophomonas maltophilia
row,SMILES,MIC [µg/mL]
1,C[C@@H](O)[C@H]1C(=O)N2C(C(=O)[O-])=C(SC3COC(C/N=C/N)C3)[C@H](C)[C@H]12.[Na+] (stereo partly specified),> 128
2,C[C@@H](O)[C@H]1C(=O)N2C(C(=O)[O-])=C(SC3COC(C/N=C/N(C)C)C3)[C@H](C)[C@H]12.[Na+] (stereo partly specified),> 128
3,C[C@@H](O)[C@H]1C(=O)N2C(C(=O)[O-])=C(SC3COC(C[N+](C)(C)C)C3)[C@H](C)[C@H]12 (stereo partly specified),> 128
4,CNCC(=O)NCC1CC(SC2=C(C(=O)[O-])N3C(=O)[C@H]([C@@H](C)O)[C@H]3[C@H]2C)CO1.[Na+] (stereo partly specified),> 128

# Tested on: Staphylococcus aureus
# Assay: Antimicrobial activity against methicillin - resistant Staphylococcus aureus (GC 2220)
# Assay type: functional
# Conditions: not given
row,SMILES,MIC [µg/mL]
1,C[C@@H](O)[C@H]1C(=O)N2C(C(=O)[O-])=C(SC3COC(C/N=C/N)C3)[C@H](C)[C@H]12.[Na+] (stereo partly specified),8
2,C[C@@H](O)[C@H]1C(=O)N2C(C(=O)[O-])=C(SC3COC(C/N=C/N(C)C)C3)[C@H](C)[C@H]12.[Na+] (stereo partly specified),16
3,C[C@@H](O)[C@H]1C(=O)N2C(C(=O)[O-])=C(SC3COC(C[N+](C)(C)C)C3)[C@H](C)[C@H]12 (stereo partly specified),16
4,CNCC(=O)NCC1CC(SC2=C(C(=O)[O-])N3C(=O)[C@H]([C@@H](C)O)[C@H]3[C@H]2C)CO1.[Na+] (stereo partly specified),16

# Tested on: not listed separately
# Assay: Antimicrobial activity against Morganella morganii (GC 2213)
# Assay type: functional
# Conditions: not given
row,SMILES,MIC [µg/mL]
1,C[C@@H](O)[C@H]1C(=O)N2C(C(=O)[O-])=C(SC3COC(C/N=C/N)C3)[C@H](C)[C@H]12.[Na+] (stereo partly specified),0.5
2,C[C@@H](O)[C@H]1C(=O)N2C(C(=O)[O-])=C(SC3COC(C/N=C/N(C)C)C3)[C@H](C)[C@H]12.[Na+] (stereo partly specified),2
3,C[C@@H](O)[C@H]1C(=O)N2C(C(=O)[O-])=C(SC3COC(C[N+](C)(C)C)C3)[C@H](C)[C@H]12 (stereo partly specified),4
4,CNCC(=O)NCC1CC(SC2=C(C(=O)[O-])N3C(=O)[C@H]([C@@H](C)O)[C@H]3[C@H]2C)CO1.[Na+] (stereo partly specified),0.25

# Tested on: not listed separately
# Assay: Antimicrobial activity against Enterococcus faecalis (GC 842)
# Assay type: functional
# Conditions: not given
row,SMILES,MIC [µg/mL]
1,C[C@@H](O)[C@H]1C(=O)N2C(C(=O)[O-])=C(SC3COC(C/N=C/N)C3)[C@H](C)[C@H]12.[Na+] (stereo partly specified),2
2,C[C@@H](O)[C@H]1C(=O)N2C(C(=O)[O-])=C(SC3COC(C/N=C/N(C)C)C3)[C@H](C)[C@H]12.[Na+] (stereo partly specified),8
3,C[C@@H](O)[C@H]1C(=O)N2C(C(=O)[O-])=C(SC3COC(C[N+](C)(C)C)C3)[C@H](C)[C@H]12 (stereo partly specified),8
4,CNCC(=O)NCC1CC(SC2=C(C(=O)[O-])N3C(=O)[C@H]([C@@H](C)O)[C@H]3[C@H]2C)CO1.[Na+] (stereo partly specified),4

# Tested on: Staphylococcus aureus
# Assay: Antimicrobial activity against Staphylococcus aureus (ATCC 29213)
# Assay type: functional
# Conditions: not given
row,SMILES,MIC [µg/mL]
1,C[C@@H](O)[C@H]1C(=O)N2C(C(=O)[O-])=C(SC3COC(C/N=C/N)C3)[C@H](C)[C@H]12.[Na+] (stereo partly specified),≤ 0.06
2,C[C@@H](O)[C@H]1C(=O)N2C(C(=O)[O-])=C(SC3COC(C/N=C/N(C)C)C3)[C@H](C)[C@H]12.[Na+] (stereo partly specified),0.12
3,C[C@@H](O)[C@H]1C(=O)N2C(C(=O)[O-])=C(SC3COC(C[N+](C)(C)C)C3)[C@H](C)[C@H]12 (stereo partly specified),0.12
4,CNCC(=O)NCC1CC(SC2=C(C(=O)[O-])N3C(=O)[C@H]([C@@H](C)O)[C@H]3[C@H]2C)CO1.[Na+] (stereo partly specified),≤ 0.06
